Reference: PubChem BioAssay AID330 (DTP/NCI, 2004)
Values joined by “and” are separate entries in the source; they are usually repeats but may differ in a detail not shown here. Identical values can stand only once. Inconclusive results and toxic doses are left out. Rule for the calls: active = survival T/C of 150% or more; inactive = T/C below 125% in these data.

Test system: P388 leukemia ip, CD2F1 mice, survival T/C
Experiment: NCI In Vivo Anticancer Drug Screen. Data for tumor model P388 Leukemia (intraperitoneal) in CD2F1 (CDF1) mice
Settings: endpoint: median survival time, higher = longer survival
Summary of the method: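 Mice carrying the transplanted tumor received test compound or vehicle. Survival was recorded in each group, and the value is the treated-group measurement divided by that of the vehicle-treated control group.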

[1] = dose: 25.0 mg/kg/injection, schedule: Q01DX005 (ip), vehicle: Klucel (hydroxypropylcellulose) (HPC)
[2] = dose: 50.0 mg/kg/injection, schedule: Q01DX005 (ip), vehicle: Klucel (hydroxypropylcellulose) (HPC)
[3] = dose: 100.0 mg/kg/injection, schedule: Q04DX002 (ip), vehicle: saline with Tween-80
[4] = dose: 100.0 mg/kg/injection, schedule: Q01DX005 (ip), vehicle: Klucel (hydroxypropylcellulose) (HPC)
[5] = dose: 200.0 mg/kg/injection, schedule: Q01DX005 (ip), vehicle: Klucel (hydroxypropylcellulose) (HPC)
[6] = dose: 50.0 mg/kg/injection, schedule: Q01DX009 (ip), vehicle: Klucel (hydroxypropylcellulose) (HPC)
[7] = dose: 100.0 mg/kg/injection, schedule: Q01DX009 (ip), vehicle: Klucel (hydroxypropylcellulose) (HPC)
[8] = dose: 200.0 mg/kg/injection, schedule: Q01DX009 (ip), vehicle: Klucel (hydroxypropylcellulose) (HPC)
[9] = dose: 60.0 mg/kg/injection, schedule: Q01DX005 (ip), vehicle: saline with Tween-80
[10] = dose: 120.0 mg/kg/injection, schedule: Q01DX005 (ip), vehicle: saline with Tween-80
[11] = dose: 240.0 mg/kg/injection, schedule: Q01DX005 (ip), vehicle: saline with Tween-80
[12] = dose: 50.0 mg/kg/injection, schedule: Q01DX009 (ip), vehicle: saline with Tween-80
[13] = dose: 100.0 mg/kg/injection, schedule: Q01DX009 (ip), vehicle: saline with Tween-80
[14] = dose: 200.0 mg/kg/injection, schedule: Q01DX009 (ip), vehicle: saline with Tween-80
[15] = dose: 200.0 mg/kg/injection, schedule: Q04DX002 (ip), vehicle: saline with Tween-80

Measured: T/C

COc1cc([C@@H]2c3cc4c(c(OC)c3C[C@H]3COC(=O)[C@@H]32)OCO4)cc(OC)c1OC
inactive: dose: 12.5 mg/kg/injection, schedule: Q01DX005 (ip), vehicle: Klucel (hydroxypropylcellulose) (HPC) 100 % of control | [1] 103 % of control | [2] 103 % of control and 111 % of control

c1ccc2c(c1)-c1cc3ccc4ccccc4c3nc1C1OC21 (configuration not stated)
inactive: dose: 25.0 mg/kg/injection, schedule: Q04DX002 (ip), vehicle: saline with Tween-80 105 % of control | dose: 50.0 mg/kg/injection, schedule: Q04DX002 (ip), vehicle: saline with Tween-80 99 % of control | [3] 100 % of control

O=c1[nH]c(Cl)nc2nc(Cl)[nH]c12
inactive: [2] 100 % of control | [4] 101 % of control | [5] 100 % of control

O=C(Nc1ccc(Cl)c(Cl)c1)O/N=C/c1ccncc1
inactive: dose: 50.0 mg/kg/injection, schedule: Q01DX009 (ip), vehicle: saline + alcohol 96 % of control | dose: 100.0 mg/kg/injection, schedule: Q01DX009 (ip), vehicle: saline + alcohol 89 % of control | dose: 200.0 mg/kg/injection, schedule: Q01DX009 (ip), vehicle: saline + alcohol 89 % of control

CC(O)(Cc1ccccc1)c1ccccc1 (configuration not stated)
inactive: dose: 100.0 mg/kg/injection, schedule: Q04DX003 (ip), vehicle: saline with Tween-80 100 % of control | dose: 200.0 mg/kg/injection, schedule: Q04DX003 (ip), vehicle: saline with Tween-80 104 % of control | dose: 400.0 mg/kg/injection, schedule: Q04DX003 (ip), vehicle: saline with Tween-80 109 % of control

COC(=O)C12c3ccccc3C3C(c4ccccc41)C32 (configuration not stated)
inactive: dose: 100.0 mg/kg/injection, schedule: Q04DX003 (ip), vehicle: saline 102 % of control | dose: 200.0 mg/kg/injection, schedule: Q04DX003 (ip), vehicle: saline 96 % of control

CC1N(C)c2cc3[nH]c(=O)cc(C(F)(F)F)c3cc2C1(C)C (configuration not stated)
inactive: dose: 100.0 mg/kg/injection, schedule: Q01DX001 (ip), vehicle: Klucel (hydroxypropylcellulose) (HPC) 92 % of control and 96 % of control | dose: 200.0 mg/kg/injection, schedule: Q01DX001 (ip), vehicle: Klucel (hydroxypropylcellulose) (HPC) 103 % of control and 94 % of control | dose: 400.0 mg/kg/injection, schedule: Q01DX001 (ip), vehicle: Klucel (hydroxypropylcellulose) (HPC) 121 % of control

C/C(=N\NC(=S)NNC(=S)N(C)c1ccccc1)c1ccccc1
inactive: [1] 98 % of control | [2] 93 % of control | [4] 94 % of control | [5] 91 % of control

CC(C)CS(=O)(=O)OCCCCOS(=O)(=O)CC(C)C
inactive: [2] 115 % of control | [4] 111 % of control

CC(SC(=O)c1ccccc1)(SC(=O)c1ccccc1)c1ccccc1
inactive: [6] 94 % of control | [7] 95 % of control | [8] 93 % of control

C[n+]1c2ccccc2c(Cc2ccccc2)c2ccccc21
inactive: dose: 12.5 mg/kg/injection, schedule: Q01DX005 (ip), vehicle: saline with Tween-80 108 % of control | dose: 25.0 mg/kg/injection, schedule: Q01DX005 (ip), vehicle: saline with Tween-80 106 % of control | dose: 50.0 mg/kg/injection, schedule: Q01DX005 (ip), vehicle: saline with Tween-80 100 % of control and 94 % of control

O=C(Nc1ccc(Cl)cc1)Nc1nnc2nc(C(C(=O)/C=C/c3ccccc3)c3nc4nnc(NC(=O)Nc5ccc(Cl)cc5)n4[nH]c3=O)c(=O)[nH]n12
inactive: [9] 103 % of control | [10] 95 % of control | [11] 91 % of control

CNC(=O)C(NC(=O)C(NC(=O)c1c2nc3c(C(=O)NC(C(=O)NC(C(=O)NC)C(C)C)C(C)O)ccc(C)c3oc-2c(C)c(=O)c1N)C(C)O)C(C)C (configuration not stated)
inactive: dose: 0.05 mg/kg/injection, schedule: Q01DX009 (ip), vehicle: water 101 % of control | dose: 0.1 mg/kg/injection, schedule: Q01DX009 (ip), vehicle: water 110 % of control | dose: 0.2 mg/kg/injection, schedule: Q01DX009 (ip), vehicle: water 100 % of control | dose: 0.4 mg/kg/injection, schedule: Q01DX009 (ip), vehicle: water 99 % of control | dose: 0.8 mg/kg/injection, schedule: Q01DX009 (ip), vehicle: water 108 % of control | dose: 1.6 mg/kg/injection, schedule: Q01DX009 (ip), vehicle: water 99 % of control and 90 % of control | dose: 3.2 mg/kg/injection, schedule: Q01DX009 (ip), vehicle: water 97 % of control | dose: 6.4 mg/kg/injection, schedule: Q01DX009 (ip), vehicle: water 97 % of control | dose: 12.8 mg/kg/injection, schedule: Q01DX009 (ip), vehicle: water 99 % of control

O=[N+]([O-])c1cccc2ccc(N/N=C/c3ccccc3O)nc12
inactive: [6] 94 % of control | [12] 86 % of control | [7] 87 % of control and 91 % of control | [13] 93 % of control | [14] 88 % of control | dose: 400.0 mg/kg/injection, schedule: Q01DX009 (ip), vehicle: saline with Tween-80 89 % of control

Cc1cc(N=NC(N)=S)c2ccccc2c1O
inactive: dose: 25.0 mg/kg/injection, schedule: Q04DX003 (ip), vehicle: Klucel (hydroxypropylcellulose) (HPC) 100 % of control | dose: 50.0 mg/kg/injection, schedule: Q04DX003 (ip), vehicle: Klucel (hydroxypropylcellulose) (HPC) 97 % of control | dose: 100.0 mg/kg/injection, schedule: Q04DX003 (ip), vehicle: Klucel (hydroxypropylcellulose) (HPC) 102 % of control | dose: 200.0 mg/kg/injection, schedule: Q04DX003 (ip), vehicle: Klucel (hydroxypropylcellulose) (HPC) 100 % of control

CN(/N=C/c1ccc(N(C)C)cc1)C(=O)c1ccccc1N
inactive: [12] 100 % of control | [13] 93 % of control | [14] 94 % of control

CC1CC(C)S(=O)CS1 (configuration not stated)
inactive: [3] 98 % of control | [15] 100 % of control

Cn1c(N2CCN(CCO)CC2)nc2c1c(=O)n(CC(O)CN1CCN(CCO)CC1)c(=O)n2C (configuration not stated)
inactive: [6] 89 % of control | [7] 97 % of control | [8] 107 % of control

Cc1ccc(S(=O)(=O)OCC2(COCc3ccccc3)CCCCC2=O)cc1 (configuration not stated)
inactive: [6] 106 % of control | [7] 92 % of control | [8] 95 % of control

COc1cccc(/C=N/C(=S)NC2(C)C3CCC(C3)C2(C)C)c1O (configuration not stated)
inactive: dose: 12.5 mg/kg/injection, schedule: Q01DX009 (ip), vehicle: olive oil, sesame oil, peanut oil 105 % of control | dose: 25.0 mg/kg/injection, schedule: Q01DX009 (ip), vehicle: olive oil, sesame oil, peanut oil 102 % of control | dose: 50.0 mg/kg/injection, schedule: Q01DX009 (ip), vehicle: olive oil, sesame oil, peanut oil 99 % of control | dose: 100.0 mg/kg/injection, schedule: Q01DX009 (ip), vehicle: olive oil, sesame oil, peanut oil 97 % of control | dose: 200.0 mg/kg/injection, schedule: Q01DX009 (ip), vehicle: olive oil, sesame oil, peanut oil 94 % of control | dose: 400.0 mg/kg/injection, schedule: Q01DX009 (ip), vehicle: olive oil, sesame oil, peanut oil 97 % of control

COC(=O)c1cc(OC)nc(OC)n1
inactive: dose: 12.5 mg/kg/injection, schedule: Q01DX009 (ip), vehicle: distilled water + Tween-80 108 % of control | dose: 25.0 mg/kg/injection, schedule: Q01DX009 (ip), vehicle: distilled water + Tween-80 96 % of control | dose: 50.0 mg/kg/injection, schedule: Q01DX009 (ip), vehicle: distilled water + Tween-80 105 % of control | dose: 100.0 mg/kg/injection, schedule: Q01DX009 (ip), vehicle: distilled water + Tween-80 99 % of control

COC(=O)C1(C(=O)OC)O[C@@H](c2ccccc2)[C@H]2C(=O)N(C)C(=O)[C@H]21
inactive: dose: 60.0 mg/kg/injection, schedule: Q01DX005 (ip), vehicle: Klucel (hydroxypropylcellulose) (HPC) 99 % of control | dose: 120.0 mg/kg/injection, schedule: Q01DX005 (ip), vehicle: Klucel (hydroxypropylcellulose) (HPC) 101 % of control | dose: 240.0 mg/kg/injection, schedule: Q01DX005 (ip), vehicle: Klucel (hydroxypropylcellulose) (HPC) 110 % of control

CC1=CC(=O)CCC12CCOC2=O (configuration not stated)
inactive: [9] 104 % of control | [10] 101 % of control | [11] 101 % of control

O=C(NCCN1CCN2Cc3[nH]c4ccccc4c3CC2C1)c1ccc([N+](=O)[O-])cc1 (configuration not stated)
inactive: [3] 96 % of control | [15] 87 % of control | dose: 400.0 mg/kg/injection, schedule: Q04DX002 (ip), vehicle: saline with Tween-80 86 % of control

C[N+]1=C(/C=C/Nc2ccc3c4c(cccc24)-c2ccccc2-3)C(C)(C)c2ccccc21
inactive: [12] 108 % of control | [13] 105 % of control | [14] 118 % of control
